± gives the expanded uncertainty stated by the source.
Assay: xn = mol fraction of the nth substance listed
Details: 101 kPa, Liquid; for speed of sound: Frequency=2 MHz, Linear variable-path acoustic interferometer; for viscosity: Oscillating disk viscometry; for mass density: Vibrating tube method

C[NH+](C)C.O=P([O-])(O)O [trimethylammonium dihydrogen phosphate] + C[S+](C)[O-]
Details	mass density [kg/m3]	speed of sound [m/s]	viscosity [mPa·s]
298.15 K, x1 = 0.0264	1101.75 ± 1	1494 ± 3	2.17 ± 0.14
298.15 K, x1 = 0.0397	1104.69 ± 1	1493 ± 3	2.25 ± 0.14
298.15 K, x1 = 0.0708	1111.45 ± 1	1492 ± 3	2.45 ± 0.16
298.15 K, x1 = 0.1172	1121.12 ± 1	1494 ± 3	2.74 ± 0.18
298.15 K, x1 = 0.1673	1130.48 ± 1.1	1496 ± 3	3.05 ± 0.2
298.15 K, x1 = 0.2284	1141.05 ± 1.1	1502 ± 3	3.41 ± 0.22
298.15 K, x1 = 0.2934	1153.02 ± 1.1	1510 ± 3	3.79 ± 0.25
298.15 K, x1 = 0.3413	1160.74 ± 1.1	1518 ± 3	4.07 ± 0.27
298.15 K, x1 = 0.4012	1172.7 ± 1.1	1527 ± 3	4.41 ± 0.29
298.15 K, x1 = 0.4659	1185.32 ± 1.1	1540 ± 3	4.77 ± 0.32
298.15 K, x1 = 0.5306	1199.2 ± 1.1	1554 ± 3	5.12 ± 0.34
298.15 K, x1 = 0.6022	1215.92 ± 1.1	1570 ± 3	5.51 ± 0.37
298.15 K, x1 = 0.6728	1235.08 ± 1.1	1587 ± 3	5.89 ± 0.39
298.15 K, x1 = 0.7504	1257.14 ± 1.1	1608 ± 3	6.3 ± 0.42
298.15 K, x1 = 0.8137	1278.01 ± 1.1	1624 ± 3	6.64 ± 0.45
298.15 K, x1 = 0.8805	1302.18 ± 1.1	1641 ± 3	6.99 ± 0.47
298.15 K, x1 = 0.9643	1337.27 ± 1.1	1662 ± 3	7.45 ± 0.5
298.15 K, x1 = 0.9858	1347.05 ± 1.1	1668 ± 3	7.56 ± 0.51
298.15 K, x1 = 1	1353.61 ± 1.1	1672 ± 3	7.64 ± 0.52
303.15 K, x1 = 0.0264	1099.07 ± 1	1471 ± 3	1.95 ± 0.12
303.15 K, x1 = 0.0397	1102.31 ± 1	1471 ± 3	2.02 ± 0.13
303.15 K, x1 = 0.0708	1109.32 ± 1	1471 ± 3	2.18 ± 0.14
303.15 K, x1 = 0.1172	1119.09 ± 1	1474 ± 3	2.43 ± 0.16
303.15 K, x1 = 0.1673	1128.56 ± 1.1	1477 ± 3	2.69 ± 0.17
303.15 K, x1 = 0.2284	1139.84 ± 1.1	1483 ± 3	2.99 ± 0.19
303.15 K, x1 = 0.2934	1151.1 ± 1.1	1491 ± 3	3.31 ± 0.22
303.15 K, x1 = 0.3413	1160.68 ± 1.1	1499 ± 3	3.53 ± 0.23
303.15 K, x1 = 0.4012	1171.28 ± 1.1	1510 ± 3	3.81 ± 0.25
303.15 K, x1 = 0.4659	1184.46 ± 1.1	1523 ± 3	4.11 ± 0.27
303.15 K, x1 = 0.5306	1198.94 ± 1.1	1537 ± 3	4.4 ± 0.29
303.15 K, x1 = 0.6022	1214.84 ± 1.1	1554 ± 3	4.72 ± 0.32
303.15 K, x1 = 0.6728	1233.24 ± 1.1	1572 ± 3	5.02 ± 0.34
303.15 K, x1 = 0.7504	1256.51 ± 1.1	1592 ± 3	5.36 ± 0.36
303.15 K, x1 = 0.8137	1276.03 ± 1.1	1610 ± 3	5.64 ± 0.38
303.15 K, x1 = 0.8805	1302.06 ± 1.1	1627 ± 3	5.93 ± 0.4
303.15 K, x1 = 0.9643	1336.07 ± 1.1	1649 ± 3	6.3 ± 0.43
303.15 K, x1 = 0.9858	1344.82 ± 1.1	1656 ± 3	6.4 ± 0.43
303.15 K, x1 = 1	1350.62 ± 1.1	1660 ± 3	6.46 ± 0.44
308.15 K, x1 = 0.0264	1093.45 ± 1	1459 ± 3	1.78 ± 0.11
308.15 K, x1 = 0.0397	1096.91 ± 1	1460 ± 3	1.83 ± 0.11
308.15 K, x1 = 0.0708	1104.49 ± 1	1461 ± 3	1.97 ± 0.12
308.15 K, x1 = 0.1172	1114.06 ± 1	1464 ± 3	2.18 ± 0.14
308.15 K, x1 = 0.1673	1124.47 ± 1.1	1468 ± 3	2.41 ± 0.15
308.15 K, x1 = 0.2284	1136.12 ± 1.1	1475 ± 3	2.67 ± 0.17
308.15 K, x1 = 0.2934	1147.36 ± 1.1	1485 ± 3	2.94 ± 0.19
308.15 K, x1 = 0.3413	1157.63 ± 1.1	1492 ± 3	3.13 ± 0.2
308.15 K, x1 = 0.4012	1167.76 ± 1.1	1504 ± 3	3.37 ± 0.22
308.15 K, x1 = 0.4659	1181.31 ± 1.1	1518 ± 3	3.62 ± 0.23
308.15 K, x1 = 0.5306	1196.24 ± 1.1	1531 ± 3	3.86 ± 0.25
308.15 K, x1 = 0.6022	1214.48 ± 1.1	1548 ± 3	4.13 ± 0.27
308.15 K, x1 = 0.6728	1232.06 ± 1.1	1567 ± 3	4.38 ± 0.28
308.15 K, x1 = 0.7504	1256.27 ± 1.1	1588 ± 3	4.67 ± 0.3
308.15 K, x1 = 0.8137	1276.94 ± 1.1	1605 ± 3	4.91 ± 0.32
308.15 K, x1 = 0.8805	1301.06 ± 1.1	1625 ± 3	5.16 ± 0.34
308.15 K, x1 = 0.9643	1334.09 ± 1.1	1649 ± 3	5.47 ± 0.36
308.15 K, x1 = 0.9858	1342.26 ± 1.1	1656 ± 3	5.56 ± 0.36
308.15 K, x1 = 1	1347.59 ± 1.1	1661 ± 3	5.61 ± 0.37
313.15 K, x1 = 0.0264	1089.15 ± 1	1442 ± 3	1.65 ± 0.1
313.15 K, x1 = 0.0397	1092.77 ± 1	1443 ± 3	1.7 ± 0.11
313.15 K, x1 = 0.0708	1100.69 ± 1	1444 ± 3	1.83 ± 0.11
313.15 K, x1 = 0.1172	1109.86 ± 1	1449 ± 3	2.02 ± 0.13
313.15 K, x1 = 0.1673	1121.53 ± 1.1	1452 ± 3	2.22 ± 0.14
313.15 K, x1 = 0.2284	1134.54 ± 1.1	1460 ± 3	2.45 ± 0.15
313.15 K, x1 = 0.2934	1145.27 ± 1.1	1471 ± 3	2.69 ± 0.17
313.15 K, x1 = 0.3413	1156.54 ± 1.1	1479 ± 3	2.86 ± 0.18
313.15 K, x1 = 0.4012	1167.52 ± 1.1	1493 ± 3	3.07 ± 0.19
313.15 K, x1 = 0.4659	1181.73 ± 1.1	1507 ± 3	3.3 ± 0.21
313.15 K, x1 = 0.5306	1196.14 ± 1.1	1522 ± 3	3.51 ± 0.22
313.15 K, x1 = 0.6022	1214.06 ± 1.1	1540 ± 3	3.75 ± 0.24
313.15 K, x1 = 0.6728	1232.95 ± 1.1	1560 ± 3	3.98 ± 0.25
313.15 K, x1 = 0.7504	1256.04 ± 1.1	1581 ± 3	4.24 ± 0.27
313.15 K, x1 = 0.8137	1276.61 ± 1.1	1601 ± 3	4.44 ± 0.28
313.15 K, x1 = 0.8805	1299.14 ± 1.1	1623 ± 3	4.67 ± 0.3
313.15 K, x1 = 0.9643	1331.48 ± 1.1	1651.4 ± 2.7	4.95 ± 0.32
313.15 K, x1 = 0.9858	1339.35 ± 1.1	1659 ± 3	5.02 ± 0.32
313.15 K, x1 = 1	1344.52 ± 1.1	1664 ± 3	5.07 ± 0.32

Source: the NIST ThermoML archive (doi:10.1016/j.jct.2012.11.014)
